# Experimental data from article PMC8333425, “Discovery of a dual Ras and ARF6 inhibitor from a GPCR endocytosis screen” (Nature Communications, 2021).
# Assays:
# Assay in all cases: KINOMEscan kinase binding assay
# [1] = molecular target: T1, 384 kinases from the human genome (Homo sapiens, UniProt Q96PY6); conditions: kinase NEK1 (Entrez NEK1)
# T1 construct: purchased Eurofin/DiscoverX
# Description: (§1) We reasoned that because internalizing AT1R and its targeting to intracellular compartments can support continued MAPK signaling, and since 21 inhibits receptor internalization, it should also impede to some extent ERK1/2 activation. […] Receptor-mediated ERK1/2 signaling can involve upstream kinases such as PKC, BRAF, and MEK1[35],[36]. […] To exclude other kinases potentially involved in ERK1/2 and Akt activation as targets of 21, we ran a kinase binding assay (KINOMEscan™) on 384 kinases from the human genome. Remarkably, a very high selectivity score S(10) of 0.008 was found (Supplementary Data 3).
# (§2) The chemical library used for initial screening was from Chembridge DiverSet™ (60,000 compounds), Maybridge HitFinder™ (16,000 compounds), Maybridge (selected, 16,000 compounds), SPECS (selected, 16000 compounds), Microsource Discovery Spectrum (2000 compounds), Biomol (natural products, 500 compounds), Prestwick (commercialized products, 1120 compounds), SIGMA LopacTM (1280 compounds) and internal collection (synthesized at Université de Montréal-IRIC, ~4000 compounds). Compounds were all assigned an Université de Montréal number (UM) for internal use. Screen was performed at IRIC HTS facility. KINOMEscan™ profiling was serviced by Eurofin/DiscoverX (San Diego, USA).
# (§3) Description of Additional Supplementary Files […]
# (§4) File Name: Supplementary Data 3
# (§5) Description: KINOMEscan results. Compound 21’s effect was tested on 384 kinases. Data represent kinases binding to their ligands in presence of 10 µM of 21, as compared to DMSO (100%). Results are from one experiment and represent the average of duplicates. Three kinases (FLT3, KIT, and PDGFRB) out of 384 were more than 90% affected (selectivity score S(10) of 0.008). […]
# [2] = molecular target: T2, 384 kinases from the human genome (Homo sapiens, UniProt Q7KZI7); conditions: kinase MARK2 (Entrez MARK2)
# T2 construct: purchased Eurofin/DiscoverX
# T2 sequence (Q7KZI7 whole entry): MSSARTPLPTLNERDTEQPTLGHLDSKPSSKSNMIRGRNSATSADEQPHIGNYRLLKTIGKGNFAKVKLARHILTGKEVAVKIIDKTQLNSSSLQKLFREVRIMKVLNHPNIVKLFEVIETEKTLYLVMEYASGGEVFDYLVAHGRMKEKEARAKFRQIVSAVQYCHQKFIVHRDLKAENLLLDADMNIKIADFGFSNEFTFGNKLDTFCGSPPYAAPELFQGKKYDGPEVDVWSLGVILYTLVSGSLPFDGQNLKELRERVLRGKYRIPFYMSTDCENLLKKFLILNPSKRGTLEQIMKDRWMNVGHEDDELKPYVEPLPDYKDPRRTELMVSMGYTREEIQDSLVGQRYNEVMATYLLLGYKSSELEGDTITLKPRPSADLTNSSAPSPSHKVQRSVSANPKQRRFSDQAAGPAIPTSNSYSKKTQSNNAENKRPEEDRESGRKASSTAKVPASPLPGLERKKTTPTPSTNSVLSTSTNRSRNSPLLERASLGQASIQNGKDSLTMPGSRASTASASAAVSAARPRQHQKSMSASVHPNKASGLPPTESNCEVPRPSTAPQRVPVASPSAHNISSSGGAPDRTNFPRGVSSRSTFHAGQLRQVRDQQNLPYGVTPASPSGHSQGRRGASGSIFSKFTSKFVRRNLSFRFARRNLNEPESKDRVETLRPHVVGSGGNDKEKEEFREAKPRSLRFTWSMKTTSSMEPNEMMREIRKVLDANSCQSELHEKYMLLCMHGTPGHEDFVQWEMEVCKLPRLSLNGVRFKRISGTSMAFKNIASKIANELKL
# Description: as §1, §2, §3, §4, §5
# [3] = molecular target: T3, 384 kinases from the human genome (Homo sapiens, UniProt Q9NQU5); conditions: kinase PAK6 (Entrez PAK6)
# T3 construct: purchased Eurofin/DiscoverX
# Description: as §1, §2, §3, §4, §5
# [4] = molecular target: T4, 384 kinases from the human genome (Homo sapiens, UniProt Q96L34); conditions: kinase MARK4 (Entrez MARK4)
# T4 construct: purchased Eurofin/DiscoverX
# Description: as §1, §2, §3, §4, §5
# [5] = molecular target: T5, 384 kinases from the human genome (Homo sapiens, UniProt P0C1S8); conditions: kinase WEE2 (Entrez WEE2)
# T5 construct: purchased Eurofin/DiscoverX
# T5 sequence (P0C1S8 whole entry): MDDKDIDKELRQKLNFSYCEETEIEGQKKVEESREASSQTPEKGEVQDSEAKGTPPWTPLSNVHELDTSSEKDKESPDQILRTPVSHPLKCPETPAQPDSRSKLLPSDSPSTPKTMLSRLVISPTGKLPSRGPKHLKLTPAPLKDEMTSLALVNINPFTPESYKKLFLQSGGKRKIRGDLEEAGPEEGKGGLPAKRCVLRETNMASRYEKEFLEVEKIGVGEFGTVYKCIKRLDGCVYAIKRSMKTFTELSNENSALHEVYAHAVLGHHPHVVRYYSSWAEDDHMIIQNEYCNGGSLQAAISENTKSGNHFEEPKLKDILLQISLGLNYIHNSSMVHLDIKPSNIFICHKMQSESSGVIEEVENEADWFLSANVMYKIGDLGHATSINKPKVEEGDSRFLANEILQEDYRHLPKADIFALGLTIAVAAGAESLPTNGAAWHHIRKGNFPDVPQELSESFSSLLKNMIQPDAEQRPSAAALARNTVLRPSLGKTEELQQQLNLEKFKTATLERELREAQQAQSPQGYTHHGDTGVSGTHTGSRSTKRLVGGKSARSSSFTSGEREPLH
# Description: as §1, §2, §3, §4, §5
# [6] = molecular target: T6, 384 kinases from the human genome (Homo sapiens, UniProt Q13464); conditions: kinase ROCK1 (Entrez ROCK1)
# T6 construct: purchased Eurofin/DiscoverX
# Description: as §1, §2, §3, §4, §5
# [7] = molecular target: T7, 384 kinases from the human genome (Homo sapiens, UniProt Q13164); conditions: kinase ERK5 (Entrez MAPK7)
# T7 construct: purchased Eurofin/DiscoverX
# Description: as §1, §2, §3, §4, §5
# [8] = molecular target: T8, 384 kinases from the human genome (Homo sapiens, UniProt P57059); conditions: kinase SIK (Entrez SIK1)
# T8 construct: purchased Eurofin/DiscoverX
# Description: as §1, §2, §3, §4, §5
# [9] = molecular target: T9, 384 kinases from the human genome (Homo sapiens, UniProt Q5VT25); conditions: kinase MRCKA (Entrez CDC42BPA)
# T9 construct: purchased Eurofin/DiscoverX
# Description: as §1, §2, §3, §4, §5
# [10] = molecular target: T10, 384 kinases from the human genome (Homo sapiens, UniProt P42681); conditions: kinase TXK (Entrez TXK)
# T10 construct: purchased Eurofin/DiscoverX
# Description: as §1, §2, §3, §4, §5
# [11] = molecular target: T11, 384 kinases from the human genome (Homo sapiens, UniProt P08631); conditions: kinase HCK (Entrez HCK)
# T11 construct: purchased Eurofin/DiscoverX
# Description: as §1, §2, §3, §4, §5
# [12] = molecular target: T12, 384 kinases from the human genome (Homo sapiens, UniProt Q9NY57); conditions: kinase YANK2 (Entrez STK32B)
# T12 construct: purchased Eurofin/DiscoverX
# T12 sequence (Q9NY57 whole entry): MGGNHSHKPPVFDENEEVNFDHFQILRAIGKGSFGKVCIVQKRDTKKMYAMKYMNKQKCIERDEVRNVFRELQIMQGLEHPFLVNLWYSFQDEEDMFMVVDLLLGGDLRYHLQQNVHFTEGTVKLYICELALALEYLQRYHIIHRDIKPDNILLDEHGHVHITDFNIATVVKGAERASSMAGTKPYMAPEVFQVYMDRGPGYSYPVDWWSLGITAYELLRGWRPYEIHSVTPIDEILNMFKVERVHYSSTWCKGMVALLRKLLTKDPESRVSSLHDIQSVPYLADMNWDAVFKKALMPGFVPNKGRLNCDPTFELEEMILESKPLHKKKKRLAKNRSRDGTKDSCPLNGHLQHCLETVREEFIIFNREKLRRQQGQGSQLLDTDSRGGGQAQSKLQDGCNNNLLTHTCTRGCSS
# Description: as §1, §2, §3, §4, §5
# [13] = molecular target: T13, 384 kinases from the human genome (Homo sapiens, UniProt Q02779); conditions: kinase MLK2 (Entrez MAP3K10)
# T13 construct: purchased Eurofin/DiscoverX
# Description: as §1, §2, §3, §4, §5
# [14] = molecular target: T14, 384 kinases from the human genome (Homo sapiens, UniProt O60285); conditions: kinase ARK5 (Entrez NUAK1)
# T14 construct: purchased Eurofin/DiscoverX
# T14 sequence (O60285 whole entry): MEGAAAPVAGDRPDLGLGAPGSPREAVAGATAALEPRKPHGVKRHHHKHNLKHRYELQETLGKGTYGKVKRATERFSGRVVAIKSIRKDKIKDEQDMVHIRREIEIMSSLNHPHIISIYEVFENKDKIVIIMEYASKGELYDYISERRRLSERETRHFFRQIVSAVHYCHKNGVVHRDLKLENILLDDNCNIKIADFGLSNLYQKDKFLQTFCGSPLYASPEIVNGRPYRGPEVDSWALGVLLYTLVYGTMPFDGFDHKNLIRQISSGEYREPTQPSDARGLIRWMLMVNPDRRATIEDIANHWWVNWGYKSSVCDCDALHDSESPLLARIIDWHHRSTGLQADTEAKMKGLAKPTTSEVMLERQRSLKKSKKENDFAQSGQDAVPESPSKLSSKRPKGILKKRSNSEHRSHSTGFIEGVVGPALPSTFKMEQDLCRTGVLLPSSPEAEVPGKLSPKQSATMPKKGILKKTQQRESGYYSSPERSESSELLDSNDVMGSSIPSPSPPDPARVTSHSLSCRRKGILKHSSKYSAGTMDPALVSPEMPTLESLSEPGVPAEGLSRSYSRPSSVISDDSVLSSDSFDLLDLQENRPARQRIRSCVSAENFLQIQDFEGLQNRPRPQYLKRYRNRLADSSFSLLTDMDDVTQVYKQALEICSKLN
# Description: as §1, §2, §3, §4, §5
# [15] = molecular target: T15, 384 kinases from the human genome (Homo sapiens, UniProt Q7L7X3); conditions: kinase TAOK1 (Entrez TAOK1)
# T15 construct: purchased Eurofin/DiscoverX
# Description: as §1, §2, §3, §4, §5
# [16] = molecular target: T16, 384 kinases from the human genome (Homo sapiens, UniProt Q99683); conditions: kinase ASK1 (Entrez MAP3K5)
# T16 construct: purchased Eurofin/DiscoverX
# T16 sequence (Q99683 whole entry): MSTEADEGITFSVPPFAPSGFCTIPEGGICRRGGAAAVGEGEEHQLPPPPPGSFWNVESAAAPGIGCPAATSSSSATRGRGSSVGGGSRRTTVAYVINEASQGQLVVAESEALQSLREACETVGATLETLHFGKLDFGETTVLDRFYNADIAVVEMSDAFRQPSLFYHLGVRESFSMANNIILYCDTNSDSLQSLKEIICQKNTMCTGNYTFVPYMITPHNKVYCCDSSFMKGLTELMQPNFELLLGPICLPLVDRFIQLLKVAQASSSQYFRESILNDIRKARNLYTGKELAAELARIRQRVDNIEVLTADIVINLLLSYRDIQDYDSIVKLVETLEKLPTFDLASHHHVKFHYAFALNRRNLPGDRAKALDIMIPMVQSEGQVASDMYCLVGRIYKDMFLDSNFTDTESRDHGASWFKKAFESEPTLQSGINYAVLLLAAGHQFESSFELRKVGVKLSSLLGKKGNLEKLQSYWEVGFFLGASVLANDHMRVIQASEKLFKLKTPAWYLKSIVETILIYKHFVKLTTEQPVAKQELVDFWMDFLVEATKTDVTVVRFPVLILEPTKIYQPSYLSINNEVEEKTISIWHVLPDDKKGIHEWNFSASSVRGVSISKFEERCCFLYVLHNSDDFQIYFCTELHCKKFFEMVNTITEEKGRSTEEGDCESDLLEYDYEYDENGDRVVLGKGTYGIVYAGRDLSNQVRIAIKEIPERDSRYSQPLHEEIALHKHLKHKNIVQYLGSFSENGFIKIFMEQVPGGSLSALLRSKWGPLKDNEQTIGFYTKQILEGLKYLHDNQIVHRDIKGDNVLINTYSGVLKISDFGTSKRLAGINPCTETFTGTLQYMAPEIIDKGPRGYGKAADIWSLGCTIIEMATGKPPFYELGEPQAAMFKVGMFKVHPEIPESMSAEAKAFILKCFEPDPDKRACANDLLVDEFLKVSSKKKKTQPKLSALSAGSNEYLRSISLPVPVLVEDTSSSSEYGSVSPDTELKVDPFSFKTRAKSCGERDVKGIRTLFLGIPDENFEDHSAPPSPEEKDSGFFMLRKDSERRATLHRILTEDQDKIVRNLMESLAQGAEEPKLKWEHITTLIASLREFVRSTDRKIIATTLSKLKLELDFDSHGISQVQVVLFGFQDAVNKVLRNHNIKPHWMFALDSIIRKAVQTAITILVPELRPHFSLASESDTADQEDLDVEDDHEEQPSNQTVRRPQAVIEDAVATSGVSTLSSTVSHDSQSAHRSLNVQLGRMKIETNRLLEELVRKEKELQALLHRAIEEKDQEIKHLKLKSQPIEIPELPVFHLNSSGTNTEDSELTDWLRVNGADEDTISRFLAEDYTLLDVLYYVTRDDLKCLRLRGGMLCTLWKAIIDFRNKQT
# Description: as §1, §2, §3, §4, §5
# [17] = molecular target: T17, 384 kinases from the human genome (Homo sapiens, UniProt Q96J92); conditions: kinase WNK4 (Entrez WNK4)
# T17 construct: purchased Eurofin/DiscoverX
# Description: as §1, §2, §3, §4, §5
# [18] = molecular target: T18, 384 kinases from the human genome (Homo sapiens, UniProt P36507); conditions: kinase MEK2 (Entrez MAP2K2)
# T18 construct: purchased Eurofin/DiscoverX
# T18 sequence (P36507 whole entry): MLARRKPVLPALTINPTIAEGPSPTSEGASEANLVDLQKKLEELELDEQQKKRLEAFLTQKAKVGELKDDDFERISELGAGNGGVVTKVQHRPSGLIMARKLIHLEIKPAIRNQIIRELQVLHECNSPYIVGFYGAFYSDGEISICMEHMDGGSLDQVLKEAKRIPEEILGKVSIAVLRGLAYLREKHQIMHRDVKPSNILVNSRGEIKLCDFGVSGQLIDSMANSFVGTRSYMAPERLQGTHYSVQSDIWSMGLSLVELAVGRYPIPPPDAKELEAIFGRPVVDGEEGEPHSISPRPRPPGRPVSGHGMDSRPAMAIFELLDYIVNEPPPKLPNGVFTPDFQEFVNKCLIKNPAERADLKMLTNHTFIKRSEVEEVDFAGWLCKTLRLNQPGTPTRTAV
# Description: as §1, §2, §3, §4, §5
# [19] = molecular target: T19, 384 kinases from the human genome (Homo sapiens, UniProt Q9HCP0); conditions: kinase CSNK1G1 (Entrez CSNK1G1)
# T19 construct: purchased Eurofin/DiscoverX
# T19 sequence (Q9HCP0 whole entry): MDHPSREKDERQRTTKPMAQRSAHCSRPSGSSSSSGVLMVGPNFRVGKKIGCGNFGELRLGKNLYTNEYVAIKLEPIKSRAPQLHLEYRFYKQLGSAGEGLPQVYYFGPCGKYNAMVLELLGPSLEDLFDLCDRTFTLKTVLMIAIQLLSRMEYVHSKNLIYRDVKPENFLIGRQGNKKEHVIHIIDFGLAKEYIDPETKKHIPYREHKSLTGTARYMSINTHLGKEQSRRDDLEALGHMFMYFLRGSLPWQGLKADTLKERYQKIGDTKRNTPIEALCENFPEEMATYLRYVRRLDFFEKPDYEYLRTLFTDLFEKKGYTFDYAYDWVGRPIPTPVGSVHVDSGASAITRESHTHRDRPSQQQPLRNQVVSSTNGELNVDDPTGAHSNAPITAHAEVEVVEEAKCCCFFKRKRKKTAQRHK
# Description: as §1, §2, §3, §4, §5
# [20] = molecular target: T20, 384 kinases from the human genome (Homo sapiens, UniProt Q16816); conditions: kinase PHKG1 (Entrez PHKG1)
# T20 construct: purchased Eurofin/DiscoverX
# Description: as §1, §2, §3, §4, §5
# [21] = molecular target: T21, 384 kinases from the human genome (Homo sapiens, UniProt O14936); conditions: kinase CASK (Entrez CASK)
# T21 construct: purchased Eurofin/DiscoverX
# Description: as §1, §2, §3, §4, §5
# [22] = molecular target: T22, 384 kinases from the human genome (Homo sapiens, UniProt Q9P1W9); conditions: kinase PIM2 (Entrez PIM2)
# T22 construct: purchased Eurofin/DiscoverX
# T22 sequence (Q9P1W9 whole entry): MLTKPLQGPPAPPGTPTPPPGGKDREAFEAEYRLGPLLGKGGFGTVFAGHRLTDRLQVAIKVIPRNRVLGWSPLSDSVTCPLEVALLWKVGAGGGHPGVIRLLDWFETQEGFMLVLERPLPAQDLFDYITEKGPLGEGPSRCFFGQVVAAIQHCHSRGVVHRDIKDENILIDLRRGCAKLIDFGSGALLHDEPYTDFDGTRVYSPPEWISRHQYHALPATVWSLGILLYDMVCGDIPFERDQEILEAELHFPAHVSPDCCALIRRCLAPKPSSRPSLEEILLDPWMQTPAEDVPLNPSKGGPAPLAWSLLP
# Description: as §1, §2, §3, §4, §5
# [23] = molecular target: T23, 384 kinases from the human genome (Homo sapiens, UniProt P54764); conditions: kinase EPHA4 (Entrez EPHA4)
# T23 construct: purchased Eurofin/DiscoverX
# Description: as §1, §2, §3, §4, §5
# [24] = molecular target: T24, 384 kinases from the human genome (Homo sapiens, UniProt P29322); conditions: kinase EPHA8 (Entrez EPHA8)
# T24 construct: purchased Eurofin/DiscoverX
# Description: as §1, §2, §3, §4, §5
# [25] = molecular target: T25, 384 kinases from the human genome (Homo sapiens, UniProt Q00536); conditions: kinase PCTK1 (Entrez CDK16)
# T25 construct: purchased Eurofin/DiscoverX
# Description: as §1, §2, §3, §4, §5
# [26] = molecular target: T26, 384 kinases from the human genome (Homo sapiens, UniProt P36897); conditions: kinase TGFBR1 (Entrez TGFBR1)
# T26 construct: purchased Eurofin/DiscoverX
# Description: as §1, §2, §3, §4, §5
structure (smiles),measurement,setting,value
CC(C)C(=O)N1CCN(c2ccc(NC(=O)c3cc4ccccc4o3)cc2Cl)CC1 [Compound 21],Percent Control,[1],77%
same,Percent Control,[2],80%
same,Percent Control,[3],81%
same,Percent Control,[4],98%
same,Percent Control,[5],100%
same,Percent Control,[6],88%
same,Percent Control,[7],99%
same,Percent Control,[8],94%
same,Percent Control,[9],68%
same,Percent Control,[10],76%
same,Percent Control,[11],99%
same,Percent Control,[12],98%
same,Percent Control,[13],96%
same,Percent Control,[14],97%
same,Percent Control,[15],100%
same,Percent Control,[16],79%
same,Percent Control,[17],100%
same,Percent Control,[18],76%
same,Percent Control,[19],87%
same,Percent Control,[20],87%
same,Percent Control,[21],100%
same,Percent Control,[22],100%
same,Percent Control,[23],95%
same,Percent Control,[24],94%
same,Percent Control,[25],96%
same,Percent Control,[26],79%
